Earlier results, collected in patent publication US11058674B2 (priority 2016, dated 2021).
Like-named read-outs stand apart in the source and are kept apart here.

Tests used:
[1] = believed, from literature
mouse [2] = tested on: mouse; set-up: key to Conditioned place preference Relapse: ∘: Effective; conditions: for CPP acquisition caused by cocaine / CPP expression caused by cocaine: N/OFQ: intraventricular administration to a mouse
mouse [3] = tested on: mouse; set-up: key: ∘: Effective; x: Ineffective; conditions: cocaine addiction
[4] = set-up: key: ∘: Effective; conditions: alcohol addiction
[5] = set-up: key: ∘: Effective; conditions: alcohol addiction; remark: listed apart in the source
mouse [6] = tested on: mouse; set-up: key: ∘: Effective; conditions: cocaine addiction
rat = tested on: rat; set-up: key to Self-administration Seeking behavior: ∘: Effective; x: Ineffective

| Molecule | CPP acquisition caused by cocaine (mouse [2]) | Conditioned place preference Acquisition (mouse [3]) | CPP expression caused by cocaine (mouse [2]) | Self-administration Seeking behavior [4] | Self-administration Uptake behavior [4] | Conditioned place preference Acquisition [5] | Conditioned place preference Expression [5] | Conditioned place preference Relapse [5] | also measured |
| --- | --- | --- | --- | --- | --- | --- | --- | --- | --- |
| Cc1ccccc1C(c1ccccc1C)N1C2CCC1CC(O)(c1ccccc1)C2 (centres unmarked) [SCH221510] | – | – | – | – | – | – | – | – | migration to brain [1]: low migration to brain |
| O=C1Cc2ccccc2N1C1CCN(C2CCC3CCCc4cccc2c43)CC1 (centres unmarked) [AT-202, 1-[1-(2,3,3a,4,5,6-hexahydro-1H-phenalen-1-yl)piperidin-4-yl]-indolin-2-one] | does not affect | x ^20) | – | – | – | – | – | – | relapse of CPP caused by a stress (mouse [2]; cocaine CPP): suppresses; Conditioned place preference Relapse (mouse [2]; cocaine addiction): ∘ ^20) |
| Cl.O=C1NCN(c2ccccc2)C12CCN(C1Cc3cccc4cccc1c34)CC2 (centres unmarked) [Ro65-6570, 8-acenaphthen-1-yl-phenyl-1,3,8-triaza-spiro[4.5]decan-4-one hydrochloride] | does not affect | x ^19) | does not affect | – | – | – | – | – | Conditioned place preference Expression (mouse [3]): x ^18) |
| CNC(=O)Cn1c(=O)n(C2CCN([C@@H]3Cc4cccc5cccc3c45)CC2)c2ccccc21.Cl.O [MT-7716, (R)-2-{3-[1-(acenaphthen-1-yl)piperidin-4-yl]-2-oxo-2,3-dihydro-1H-benzimidazol-1-yl}-N-methylacetamide hydrochloride monohydrate] | – | – | – | ∘ ^12) | ∘ ^11) | – | – | – | – |
| Cl.O=C1NCN(c2ccccc2)C12CCN([C@H]1CC[C@@H]3CCCc4cccc1c43)CC2 [Ro64-6198, (1S,3aS)-8-(2,3,3a,4,5,6-hexahydro-1H-phenalen-1-yl)-1-phenyl-1,3,8-triaza-spiro[4.5]decan-4-one hydrochloride] | – | – | – | – | ∘ ^10) | ∘ ^13) | ∘ ^13) | ∘ ^13) | – |
| N/OFQ: Endogenous ligands of the NOP receptor, named nociceptin and orphanin FQ | blocks | – | blocks | ∘ ^9) | ∘ ^9) | ∘ ^13) | ∘ ^13) | ∘ ^13) | Conditioned place preference Acquisition (mouse [6]): ∘ ^17); Conditioned place preference Expression (mouse [6]): ∘ ^18); Self-administration Seeking behavior (rat; cocaine addiction): x ^16); cocaine seeking behavior induced by a stress after the extinction of the cocaine self-administration (rat; rat): does not suppress |
